Data from US20250032524A1, “BROAD SPECTRUM AMINOGLYCOSIDES AND USES THEREOF” (REVAGENIX, INC., priority 2022, published 2025).
Where two headings read alike, the source gives them in different places.

What was measured:
Type in all cases: cell-based
[1] = test system: all sets of organisms tested (SENTRY clinical isolates); assay: Antibacterial surveillance, overall statement; conditions: all sets of organisms tested (Table 3); read-out: MIC50,90 values
Protocol: Minimum inhibitory concentrations for representative example compounds herein were determined by a broth microdilution method in accordance with the Clinical and Laboratory Standards Institute (CLSI) guidelines. In brief, organism suspensions were adjusted to a 0.5 McFarland standard to yield a final inoculum between 3×10^5 and 7×10^5 colony-forming units (CFU)/mL. The inoculum was prepared by suspension of a colony from an agar plate that was prepared the previous day. Compound dilutions and inoculum were prepared in sterile, cation adjusted Mueller-Hinton Broth (Beckton Dickinson).
Bacteria were suspended in sterile saline and added to each assay plate to obtain a final concentration of 5×10^5 CFU/mL. An inoculum volume of 100 μL was added to wells containing 100 μL of broth with 2-fold serial dilutions of the test compound. All inoculated microdilution trays were incubated in ambient air at 35° C. for 18-24 hours. Following incubation, the lowest concentration of the compound that prevented visible growth (OD 600 nm<0.05) is recorded was the MIC. […] Performance of the assay was monitored by the use of laboratory quality-control strains and a standard compound with a defined MIC spectrum (neomycin), in accordance with CLSI guidelines.
Several compounds of the disclosure (Compound 1, 2, and 3) were further evaluated against several hundred bacterial isolates (isolated in the United States and Europe, 1:1) selected from the SENTRY Antimicrobial Surveillance Program (JMI Laboratories, North Liberty, Iowa). The set of clinical isolates included 300 randomly selected Enterobacterales, 103 randomly selected P. aeruginosa, 100 randomly selected A. baumannii-calcoaceticus, 20 randomly selected Methicillin-sensitive S. aureus (MSSA), and 30 randomly selected Methicillin-resistant S. aureus (MRSA). In addition, 101 Enterobacterales and 50 P. aeruginosa isolates with genetically defined mechanisms of aminoglycoside resistance were included. […]

[2] = test system: A. baumannii-calcoaceticus; assay: Antibacterial surveillance of clinical isolates (MIC50/90); conditions: 100 isolates
How it was run: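 CLSI broth microdilution MIC in cation-adjusted Mueller-Hinton broth, final inoculum 5×10^5 CFU/mL, 35° C ambient air, 18-24 h; MIC = lowest concentration preventing visible growth (OD600 <0.05). SENTRY US/European clinical isolates, including genetically defined aminoglycoside-resistant sets; MIC50/MIC90 inhibit ≥50%/≥90% of isolates.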

[3] = test system: AG-resistant Enterobacterales; assay: as above
How it was run: (§1)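 Each compound is tested against randomly selected SENTRY MSSA, MRSA and P. aeruginosa panels and against aminoglycoside-resistant Enterobacterales with defined mechanisms. Growth inhibition is scored in cation-adjusted Mueller-Hinton broth after 18-24 hours at 35° C, and the set-wide MIC50/MIC90 are reported.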

P. aeruginosa [4] = assay: as above; conditions: Pseudomonas aeruginosa, 103 isolates
How it was run: as §1

[5] = test system: Methicillin-sensitive S. aureus (MSSA); assay: as above; conditions: Staphylococcus aureus, MSSA, 20 isolates
How it was run: as §1

[6] = test system: Methicillin-resistant S. aureus (MRSA); assay: as above; conditions: Staphylococcus aureus, MRSA, 30 isolates
How it was run: as §1

S. enterica = assay: MIC broth microdilution (CLSI); conditions: Salmonella enterica, read-out: Activity (MIC)
How it was run: (§2)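 2-fold serially diluted compound in cation-adjusted MHB, inoculated at 5×10^5 CFU/mL from 0.5 McFarland suspensions. Incubation: 35° C., ambient air, 18-24 hours. Endpoint: no visible growth (OD 600 nm<0.05); assay controlled with CLSI quality-control strains and neomycin.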

E. coli = assay: MIC broth microdilution (CLSI); conditions: Escherichia coli
How it was run: as §2

K. aerogenes = assay: MIC broth microdilution (CLSI); conditions: Klebsiella aerogenes; strain AEAE1042, MDR Clinical isolate (CDC CRE panel), CDC AR Bank 0161
How it was run: as §2

P. mirabilis = assay: MIC broth microdilution (CLSI); conditions: Proteus mirabilis; strain APMI1048, MDR Clinical isolate (CDC CRE panel), CDC AR Bank 0159
How it was run: as §2

K. pneumoniae = assay: MIC broth microdilution (CLSI)
How it was run: as §2

S. aureus = assay: MIC broth microdilution (CLSI); conditions: for MIC: Staphylococcus aureus
How it was run: as §2

P. aeruginosa [7] = assay: MIC broth microdilution (CLSI); conditions: Pseudomonas aeruginosa
How it was run: as §2

A. baumannii = assay: MIC broth microdilution (CLSI); conditions: Acinetobacter baumannii
How it was run: as §2

E. cloacae = assay: MIC broth microdilution (CLSI); conditions: Enterobacter cloacae; strain AECL1089, MDR Clinical isolate (CDC CRE panel), CDC AR Bank 0154
How it was run: as §2

C. freundii = assay: MIC broth microdilution (CLSI); conditions: Citrobacter freundii, read-out: Activity (MIC)
How it was run: as §2

C[C@H](N)[C@@H]1CC[C@@H](N)[C@@H](O[C@@H]2[C@@H](N)[C@H](O)[C@@H](NC(=O)[C@@H](O)[C@H](F)CN)[C@H](O)[C@H]2O[C@@H]2O[C@H](CO)[C@@H](O[C@H]3O[C@@H](CN)[C@@H](O)[C@H](O)[C@H]3N)[C@H]2O)O1 [Compound 3, (2R,3R)-4-amino-N-((1R,2S,3S,4R,5R,6S)-3-amino-4-(((2R,3R,6S)-3-amino-6-((S)-1-aminoethyl)tetrahydro-2H-pyran-2-yl)oxy)-5-(((2S,3R,4S,5R)-4-(((2R,3R,4R,5S,6S)-3-amino-6-(aminomethyl)-4,5-dihydroxytetrahydro-2H-pyran-2-yl)oxy)-3-hydroxy-5-(hydroxymethyl)tetrahydrofuran-2-yl)oxy)-2,6-dihydroxycyclohexyl)-3-fluoro-2-hydroxybutanamide]
MIC50 [1]: ≤ 16 µg/mL | MIC50 ([2]; read-out: MIC50): < 16 µg/mL | MIC90 ([2]; read-out: MIC90): < 16 µg/mL | MIC50 [3]: < 16 µg/mL | MIC90 [3]: < 16 µg/mL | MIC50 (P. aeruginosa [4]; read-out: MIC50): < 16 µg/mL | MIC90 (P. aeruginosa [4]; read-out: MIC90): < 16 µg/mL | MIC50 ([5]; read-out: MIC50): < 16 µg/mL | MIC90 ([5]; read-out: MIC90): < 16 µg/mL | MIC50 ([6]; read-out: MIC50): < 16 µg/mL | MIC90 ([6]; read-out: MIC90): < 16 µg/mL | MIC (S. enterica): < 16 µg/mL | MIC (E. coli; read-out: Activity (MIC), strain AECO1225, MDR Clinical isolate (CDC CRE panel), CDC AR Bank 0118): < 16 µg/mL | MIC (E. coli; read-out: Activity (MIC), strain AECO1226, MDR Clinical isolate (CDC CRE panel), CDC AR Bank 0119): < 16 µg/mL | MIC (E. coli; read-out: Activity (MIC), strain AECO1227, MDR Clinical isolate (CDC CRE panel), CDC AR Bank 0128): < 16 µg/mL | MIC (E. coli; read-out: Activity (MIC), strain NECO0003, ΔtolC): < 16 µg/mL | MIC (E. coli; read-out: Activity (MIC), strain NECO0245, ArmA): < 16 µg/mL | MIC (E. coli; strain NECO0001, WT QC, read-out: Activity (MIC)): < 16 µg/mL | MIC (E. coli; strain NECO0002, WT, read-out: Activity (MIC)): < 16 µg/mL | MIC (E. coli; strain NECO0243, empty vector, read-out: Activity (MIC)): < 16 µg/mL | MIC (E. coli; strain NECO0244, AAC(6')-Ib, read-out: Activity (MIC)): < 16 µg/mL | MIC (E. coli; strain NECO0289, APH(3')-Ia, read-out: Activity (MIC)): < 16 µg/mL | MIC (E. coli; strain NECO0302, AAC(3)-IIa, read-out: Activity (MIC)): < 16 µg/mL | MIC (E. coli; strain NECO0350, AAC(2')-I, read-out: Activity (MIC)): < 16 µg/mL | MIC (E. coli; strain NECO0359, ANT(4')-Ia, read-out: Activity (MIC)): < 16 µg/mL | MIC (K. aerogenes): < 16 µg/mL | MIC (P. mirabilis): < 16 µg/mL | MIC (K. pneumoniae; Klebsiella pneumoniae, strain AKPN1246, MDR Clinical isolate (CDC CRE panel), CDC AR Bank 0139): < 16 µg/mL | Activity (MIC) (K. pneumoniae; strain AKPN1250, MDR Clinical isolate (CDC CRE panel), CDC AR Bank 0143): + (MIC threshold for positive activity (+) is ≤16 μg/mL) | Activity (MIC) (K. pneumoniae; strain AKPN1253, MDR Clinical isolate (CDC CRE panel), CDC AR Bank 0148): + (MIC threshold for positive activity (+) is ≤16 μg/mL) | Activity (MIC) (K. pneumoniae; strain AKPN1255, MDR Clinical isolate (CDC CRE panel), CDC AR Bank 0153): + (MIC threshold for positive activity (+) is ≤16 μg/mL) | MIC (S. aureus; ATCC29213, strain NSAU001, wild-type, QC, ATCC 29213): < 16 µg/mL | MIC (S. aureus; strain NSAU1004, MDR Clinical isolate): < 16 µg/mL | Activity (MIC) (S. aureus; strain NSAU1015, MDR Clinical isolate): + (MIC threshold for positive activity (+) is ≤16 μg/mL) | Activity (MIC) (S. aureus; strain NSAU1023, MDR Clinical isolate): + (MIC threshold for positive activity (+) is ≤16 μg/mL) | Activity (MIC) (S. aureus; strain NSAU1063, MDR Clinical isolate): + (MIC threshold for positive activity (+) is ≤16 μg/mL) | MIC (P. aeruginosa [7]; read-out: Activity (MIC), strain NPAE0006, Efflux KO, Aph(3')-IIb): < 16 µg/mL | MIC (P. aeruginosa [7]; read-out: Activity (MIC), strain NPAE0010, MexXY over-expressed, Aph(3')-IIb): < 16 µg/mL | MIC (P. aeruginosa [7]; read-out: Activity (MIC), strain NPAE1288, MDR Clinical isolate): < 16 µg/mL | MIC (P. aeruginosa [7]; read-out: Activity (MIC), strain NPAE1293, MDR Clinical isolate): < 16 µg/mL | MIC (P. aeruginosa [7]; read-out: Activity (MIC), strain NPAE1299, MDR Clinical isolate): < 16 µg/mL | MIC (P. aeruginosa [7]; read-out: Activity (MIC), strain NPAE1302, MDR Clinical isolate): < 16 µg/mL | MIC (P. aeruginosa [7]; read-out: Activity (MIC), strain NPAE1303, MDR Clinical isolate): < 16 µg/mL | MIC (P. aeruginosa [7]; read-out: Activity (MIC), strain NPAE1308, MDR Clinical isolate): < 16 µg/mL | MIC (P. aeruginosa [7]; read-out: Activity (MIC), strain NPAE1310, MDR Clinical isolate): < 16 µg/mL | MIC (P. aeruginosa [7]; read-out: Activity (MIC), strain NPAE1313, MDR Clinical isolate): > 16 µg/mL | MIC (P. aeruginosa [7]; read-out: Activity (MIC), strain NPAE1316, MDR Clinical isolate): < 16 µg/mL | MIC (P. aeruginosa [7]; read-out: Activity (MIC), strain NPAE1323, MDR Clinical isolate): < 16 µg/mL | MIC (P. aeruginosa [7]; strain NPAE0001, WT Aph(3')-IIb, QC, read-out: Activity (MIC)): < 16 µg/mL | MIC (P. aeruginosa [7]; strain NPAE0002, WT Aph(3')-IIb, read-out: Activity (MIC)): < 16 µg/mL | MIC (P. aeruginosa [7]; strain NPAE0359, aph(3')-IIb KO (tetR), read-out: Activity (MIC)): < 16 µg/mL | MIC (A. baumannii; read-out: Activity (MIC), strain NABA0007, ΔadeJK efflux): < 16 µg/mL | MIC (A. baumannii; read-out: Activity (MIC), strain NABA1427, MDR Clinical isolate): < 16 µg/mL | MIC (A. baumannii; read-out: Activity (MIC), strain NABA1433, MDR Clinical isolate): < 16 µg/mL | MIC (A. baumannii; read-out: Activity (MIC), strain NABA1434, MDR Clinical isolate): < 16 µg/mL | MIC (A. baumannii; read-out: Activity (MIC), strain NABA1436, MDR Clinical isolate): < 16 µg/mL | MIC (A. baumannii; read-out: Activity (MIC), strain NABA1437, MDR Clinical isolate): < 16 µg/mL | MIC (A. baumannii; read-out: Activity (MIC), strain NABA1438, MDR Clinical isolate): < 16 µg/mL | MIC (A. baumannii; read-out: Activity (MIC), strain NABA1439, MDR Clinical isolate): < 16 µg/mL | MIC (A. baumannii; read-out: Activity (MIC), strain NABA1448, MDR Clinical isolate): < 16 µg/mL | MIC (A. baumannii; read-out: Activity (MIC), strain NABA1449, MDR Clinical isolate): < 16 µg/mL | MIC (A. baumannii; read-out: Activity (MIC), strain NABA1450, MDR Clinical isolate): < 16 µg/mL | MIC (A. baumannii; strain NABA0006, WT parent, read-out: Activity (MIC)): < 16 µg/mL | MIC (A. baumannii; strain NABA0020, AME negative strain, read-out: Activity (MIC)): < 16 µg/mL | MIC (E. cloacae): < 16 µg/mL | MIC (C. freundii): < 16 µg/mL
